Earlier results in patent publication US20250043462A1, “INSECT REPELLENT POLYETHYLENE TEREPHTHALATE FIBERS” (The Government of the United States of America, as …, priority 2023, published 2025).

Details: commercially available repellent sprays

SMILES	duration of repellency before reapplication
CCN(CC)C(=O)c1cccc(C)c1 [DEET, N,N,-diethyl-meta-toluamide]	up to 10 h
CCC(C)OC(=O)N1CCCCC1CCO (centres unmarked) [Picaridin, 1-(1-methylpropoxycarbonyl)-2-(2-hydroxyethyl)piperidine]	≤ 8 h
